Consider 15 compounds from PMC7960226 (Science (New York, N.Y.), 2020).

The nature of data set [1]: Madin-Darby canine kidney permeability assay.
Data set [2] can be described thus: Pharmacokinetics in rats after i.v. and oral administration.
In data set [3] the target is T1, PTGS2 (Homo sapiens, UniProt P35354).
T1 sequence (P35354 18-604): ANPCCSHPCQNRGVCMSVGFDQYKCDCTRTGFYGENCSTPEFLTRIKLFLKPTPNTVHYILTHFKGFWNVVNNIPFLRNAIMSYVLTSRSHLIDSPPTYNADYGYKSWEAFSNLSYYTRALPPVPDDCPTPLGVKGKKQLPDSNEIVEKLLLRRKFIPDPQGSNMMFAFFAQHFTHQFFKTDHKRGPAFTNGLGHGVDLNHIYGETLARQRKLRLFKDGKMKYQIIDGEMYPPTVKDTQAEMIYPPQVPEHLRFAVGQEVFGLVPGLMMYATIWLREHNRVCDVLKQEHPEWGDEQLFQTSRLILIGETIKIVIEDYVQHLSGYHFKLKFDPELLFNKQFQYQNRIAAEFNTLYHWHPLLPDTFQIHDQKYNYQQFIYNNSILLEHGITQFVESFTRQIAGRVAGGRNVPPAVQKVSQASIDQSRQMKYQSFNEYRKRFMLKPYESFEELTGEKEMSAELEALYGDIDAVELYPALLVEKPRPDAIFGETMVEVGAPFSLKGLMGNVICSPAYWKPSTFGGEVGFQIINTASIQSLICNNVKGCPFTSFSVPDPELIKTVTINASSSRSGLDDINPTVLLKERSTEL
Put plainly: safety panel assay, PTGS2. Conditions: Table 2, PTGS2; accurate to ±20%. In kind it is biochemical.

For data set [4], the target named is T2, SLCO2B1 (Homo sapiens, UniProt O94956).
T2 sequence (O94956 1-709): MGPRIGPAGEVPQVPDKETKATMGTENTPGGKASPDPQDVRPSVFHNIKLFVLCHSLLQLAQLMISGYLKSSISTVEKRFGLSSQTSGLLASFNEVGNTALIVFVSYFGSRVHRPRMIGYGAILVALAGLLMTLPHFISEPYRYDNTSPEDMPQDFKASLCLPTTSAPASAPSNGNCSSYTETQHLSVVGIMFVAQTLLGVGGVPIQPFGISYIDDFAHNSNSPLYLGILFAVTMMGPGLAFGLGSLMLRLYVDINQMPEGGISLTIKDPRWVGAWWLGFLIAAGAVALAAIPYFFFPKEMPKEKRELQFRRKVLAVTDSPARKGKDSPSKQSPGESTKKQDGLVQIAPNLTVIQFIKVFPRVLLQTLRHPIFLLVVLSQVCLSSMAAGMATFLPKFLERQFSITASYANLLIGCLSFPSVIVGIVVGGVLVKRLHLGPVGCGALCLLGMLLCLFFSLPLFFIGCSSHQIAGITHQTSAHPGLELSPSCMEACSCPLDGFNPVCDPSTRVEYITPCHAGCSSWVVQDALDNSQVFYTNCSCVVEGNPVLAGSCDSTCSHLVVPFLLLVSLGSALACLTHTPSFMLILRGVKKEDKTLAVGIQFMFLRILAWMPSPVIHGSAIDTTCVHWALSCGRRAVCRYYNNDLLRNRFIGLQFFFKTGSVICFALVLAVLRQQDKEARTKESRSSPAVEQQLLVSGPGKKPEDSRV
Put plainly: in vitro transporter inhibition, SLCO2B1. In kind it is biochemical. The following applies: Table 1, predicted target SLCO2B1.

The target of data set [5] is T3, SLCO1B1 (Homo sapiens, UniProt Q9Y6L6).
T3 sequence (Q9Y6L6 1-691): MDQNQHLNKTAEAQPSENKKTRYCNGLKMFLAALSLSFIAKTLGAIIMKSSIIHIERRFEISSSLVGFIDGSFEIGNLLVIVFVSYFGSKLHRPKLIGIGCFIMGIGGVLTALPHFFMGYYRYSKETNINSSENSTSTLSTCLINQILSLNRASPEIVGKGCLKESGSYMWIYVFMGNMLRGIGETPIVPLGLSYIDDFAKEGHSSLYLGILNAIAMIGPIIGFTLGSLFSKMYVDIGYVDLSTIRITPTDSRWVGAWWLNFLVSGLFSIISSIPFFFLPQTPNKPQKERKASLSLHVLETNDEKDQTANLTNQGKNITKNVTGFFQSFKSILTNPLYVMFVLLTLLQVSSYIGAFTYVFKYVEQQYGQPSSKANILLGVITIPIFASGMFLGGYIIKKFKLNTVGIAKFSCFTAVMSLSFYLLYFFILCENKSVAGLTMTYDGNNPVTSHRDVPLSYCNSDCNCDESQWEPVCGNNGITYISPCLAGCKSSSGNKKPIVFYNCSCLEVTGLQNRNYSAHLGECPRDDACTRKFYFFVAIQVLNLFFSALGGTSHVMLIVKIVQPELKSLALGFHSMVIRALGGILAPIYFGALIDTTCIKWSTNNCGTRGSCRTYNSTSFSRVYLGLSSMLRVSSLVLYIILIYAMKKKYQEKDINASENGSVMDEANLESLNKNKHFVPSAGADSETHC
Put plainly: in vitro transporter assay, SLCO1B1.

For data set [6] the following is noted: rat, in vivo, 1 mg/kg.
The target in data set [7] is PDE4D (Homo sapiens, UniProt Q08499). Put plainly: in vitro assay, PDE4D. Type of data set: biochemical.
PDE4D, sequence (Q08499 whole entry): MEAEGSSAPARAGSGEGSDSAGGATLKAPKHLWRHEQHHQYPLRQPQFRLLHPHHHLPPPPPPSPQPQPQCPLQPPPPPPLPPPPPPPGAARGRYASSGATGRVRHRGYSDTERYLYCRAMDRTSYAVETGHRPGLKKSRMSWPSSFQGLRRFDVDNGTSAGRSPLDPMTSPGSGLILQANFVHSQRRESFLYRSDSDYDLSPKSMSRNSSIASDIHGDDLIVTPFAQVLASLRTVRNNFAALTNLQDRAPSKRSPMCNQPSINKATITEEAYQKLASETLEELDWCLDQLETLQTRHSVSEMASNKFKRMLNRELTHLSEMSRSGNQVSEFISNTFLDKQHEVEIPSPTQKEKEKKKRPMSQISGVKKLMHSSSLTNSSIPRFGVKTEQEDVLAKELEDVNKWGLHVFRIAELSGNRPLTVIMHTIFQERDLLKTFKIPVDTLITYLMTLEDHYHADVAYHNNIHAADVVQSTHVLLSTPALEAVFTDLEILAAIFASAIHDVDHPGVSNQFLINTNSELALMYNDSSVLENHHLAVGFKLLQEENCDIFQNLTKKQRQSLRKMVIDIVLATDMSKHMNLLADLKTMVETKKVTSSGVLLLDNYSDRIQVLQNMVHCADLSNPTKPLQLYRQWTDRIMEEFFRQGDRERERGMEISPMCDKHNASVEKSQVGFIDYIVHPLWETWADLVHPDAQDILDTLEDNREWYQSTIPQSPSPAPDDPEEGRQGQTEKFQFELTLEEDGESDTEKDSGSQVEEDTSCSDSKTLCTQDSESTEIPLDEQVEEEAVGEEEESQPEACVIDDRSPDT
For data set [8] the following is noted: rat, in vivo, cited from earlier work.
The test system of data set [9] is BioMAP Diversity PLUS panel. Put plainly: BioMAP Diversity PLUS panel of cell-based systems.
Data set [10] has as its target DRD5 (Homo sapiens, UniProt P21918). Put plainly: in vitro assay, DRD5. In kind it is binding.
For data set [11], the target named is DRD3 (Homo sapiens, UniProt P35462). Conditions: for Kd: read-out: dopamine D3 receptor Kd.
DRD3, sequence (P35462 whole entry, species assumed): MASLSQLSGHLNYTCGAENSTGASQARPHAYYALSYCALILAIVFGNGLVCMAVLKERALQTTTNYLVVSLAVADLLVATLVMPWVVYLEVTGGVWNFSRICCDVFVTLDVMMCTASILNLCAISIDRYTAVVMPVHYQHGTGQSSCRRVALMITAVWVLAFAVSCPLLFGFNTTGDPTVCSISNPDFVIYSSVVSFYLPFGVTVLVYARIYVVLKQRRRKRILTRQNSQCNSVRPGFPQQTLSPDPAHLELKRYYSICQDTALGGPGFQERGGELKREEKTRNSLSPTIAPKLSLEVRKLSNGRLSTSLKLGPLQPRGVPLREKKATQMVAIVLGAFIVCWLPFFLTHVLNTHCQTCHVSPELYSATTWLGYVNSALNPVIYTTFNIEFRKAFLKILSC
For data set [12] the following is noted: human adults after repeated vaccination ref 43; cited from earlier work.
In data set [13] the target is SLC18A2 (Homo sapiens, UniProt Q05940). Put plainly: transporter inhibition, SLC18A2. Type of data set: biochemical. The following applies: Table 2, SLC18A2; accurate to ±20%.
SLC18A2, sequence (Q05940 whole entry, species assumed): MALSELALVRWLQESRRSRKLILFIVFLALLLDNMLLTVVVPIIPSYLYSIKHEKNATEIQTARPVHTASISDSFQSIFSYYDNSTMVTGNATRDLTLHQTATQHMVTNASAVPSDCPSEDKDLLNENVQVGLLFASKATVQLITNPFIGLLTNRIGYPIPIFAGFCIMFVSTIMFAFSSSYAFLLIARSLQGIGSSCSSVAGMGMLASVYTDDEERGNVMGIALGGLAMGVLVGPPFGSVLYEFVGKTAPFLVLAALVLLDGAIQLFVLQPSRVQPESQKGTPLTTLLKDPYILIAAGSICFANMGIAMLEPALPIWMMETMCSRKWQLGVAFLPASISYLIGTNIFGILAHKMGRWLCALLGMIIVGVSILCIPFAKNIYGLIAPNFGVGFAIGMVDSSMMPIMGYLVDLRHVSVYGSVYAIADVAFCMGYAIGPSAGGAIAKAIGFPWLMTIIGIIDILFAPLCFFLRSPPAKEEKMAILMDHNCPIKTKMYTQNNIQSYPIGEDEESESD
Data set [14] deals with PDE3A (Homo sapiens, UniProt Q14432). Put plainly: safety panel assay, PDE3A. In kind it is biochemical. Conditions: Table 2, PDE3A; accurate to ±20%.
PDE3A, sequence (Q14432 whole entry, species assumed): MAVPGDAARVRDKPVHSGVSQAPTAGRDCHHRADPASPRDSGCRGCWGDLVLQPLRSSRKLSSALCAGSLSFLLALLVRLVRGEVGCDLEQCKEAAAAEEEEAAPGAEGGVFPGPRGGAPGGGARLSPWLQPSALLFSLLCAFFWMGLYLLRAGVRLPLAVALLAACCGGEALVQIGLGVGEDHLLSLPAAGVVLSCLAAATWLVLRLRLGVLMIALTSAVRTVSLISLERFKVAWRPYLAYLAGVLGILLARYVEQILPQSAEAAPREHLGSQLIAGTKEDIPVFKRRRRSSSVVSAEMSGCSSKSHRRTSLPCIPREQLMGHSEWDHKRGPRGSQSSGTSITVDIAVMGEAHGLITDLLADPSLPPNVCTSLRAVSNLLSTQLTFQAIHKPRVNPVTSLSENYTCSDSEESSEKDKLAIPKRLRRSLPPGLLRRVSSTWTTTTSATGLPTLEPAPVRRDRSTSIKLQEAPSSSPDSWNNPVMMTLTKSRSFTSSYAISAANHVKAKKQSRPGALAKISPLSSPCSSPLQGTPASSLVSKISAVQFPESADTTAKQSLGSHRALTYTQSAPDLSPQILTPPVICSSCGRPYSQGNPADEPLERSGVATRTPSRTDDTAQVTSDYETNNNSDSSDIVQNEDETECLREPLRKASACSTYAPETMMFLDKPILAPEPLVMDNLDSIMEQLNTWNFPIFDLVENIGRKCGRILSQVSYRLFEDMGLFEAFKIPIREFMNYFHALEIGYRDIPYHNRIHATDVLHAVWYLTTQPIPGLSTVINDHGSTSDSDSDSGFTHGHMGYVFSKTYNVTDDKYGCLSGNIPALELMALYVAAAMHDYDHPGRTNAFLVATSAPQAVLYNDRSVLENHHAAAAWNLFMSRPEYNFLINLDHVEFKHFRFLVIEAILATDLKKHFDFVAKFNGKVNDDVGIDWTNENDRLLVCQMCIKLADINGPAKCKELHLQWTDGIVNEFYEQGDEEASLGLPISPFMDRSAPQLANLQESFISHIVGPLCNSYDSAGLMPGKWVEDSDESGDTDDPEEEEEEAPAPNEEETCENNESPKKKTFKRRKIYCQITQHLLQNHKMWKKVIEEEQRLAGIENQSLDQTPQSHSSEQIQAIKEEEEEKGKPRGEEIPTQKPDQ
The subject of data set [15] is rat brain. Conditions: prenatal treatment, rat brain ref 51; cited from earlier work.
Data set [16] deals with rats. Conditions: cited from earlier work.
In data set [17] the target is SLC6A2 (Homo sapiens, UniProt P23975). The following applies: Table 2, SLC6A2; accurate to ±20%.
SLC6A2, sequence (P23975 whole entry, species assumed): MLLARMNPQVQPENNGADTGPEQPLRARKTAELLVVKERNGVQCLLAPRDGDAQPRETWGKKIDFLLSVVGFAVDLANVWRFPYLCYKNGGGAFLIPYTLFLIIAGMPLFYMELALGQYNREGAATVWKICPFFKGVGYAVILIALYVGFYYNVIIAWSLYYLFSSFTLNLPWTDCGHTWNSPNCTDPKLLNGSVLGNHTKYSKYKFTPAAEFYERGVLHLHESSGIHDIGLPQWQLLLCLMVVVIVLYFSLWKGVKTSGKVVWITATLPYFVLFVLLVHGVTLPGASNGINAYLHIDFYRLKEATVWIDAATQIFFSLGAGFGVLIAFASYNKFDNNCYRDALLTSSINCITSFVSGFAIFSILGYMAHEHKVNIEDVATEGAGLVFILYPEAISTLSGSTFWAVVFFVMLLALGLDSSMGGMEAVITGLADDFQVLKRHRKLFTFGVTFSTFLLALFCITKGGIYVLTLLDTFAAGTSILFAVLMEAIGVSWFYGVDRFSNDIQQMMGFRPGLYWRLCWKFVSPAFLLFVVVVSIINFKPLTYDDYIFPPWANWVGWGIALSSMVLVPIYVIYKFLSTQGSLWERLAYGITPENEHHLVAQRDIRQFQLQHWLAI
Data set [18] addresses T4, CHRM1 (Homo sapiens, UniProt P11229).
T4 sequence (P11229 1-460): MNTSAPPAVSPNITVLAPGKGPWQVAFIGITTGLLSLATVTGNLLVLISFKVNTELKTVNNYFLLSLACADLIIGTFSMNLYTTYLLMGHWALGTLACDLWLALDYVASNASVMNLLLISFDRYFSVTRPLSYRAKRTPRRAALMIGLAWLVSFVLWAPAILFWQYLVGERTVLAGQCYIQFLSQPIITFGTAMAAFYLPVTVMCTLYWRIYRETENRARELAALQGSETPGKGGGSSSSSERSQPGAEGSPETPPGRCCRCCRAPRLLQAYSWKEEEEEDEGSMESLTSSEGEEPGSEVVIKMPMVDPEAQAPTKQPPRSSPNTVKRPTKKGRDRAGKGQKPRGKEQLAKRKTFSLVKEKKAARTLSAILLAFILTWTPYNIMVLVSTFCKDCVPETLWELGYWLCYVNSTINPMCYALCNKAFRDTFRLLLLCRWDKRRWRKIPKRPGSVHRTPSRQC
The following applies: Table 2, CHRM1; accurate to ±20%.

The target of data set [19] is T5, ADRA1A (Homo sapiens, UniProt P35348).
T5 sequence (P35348 1-466): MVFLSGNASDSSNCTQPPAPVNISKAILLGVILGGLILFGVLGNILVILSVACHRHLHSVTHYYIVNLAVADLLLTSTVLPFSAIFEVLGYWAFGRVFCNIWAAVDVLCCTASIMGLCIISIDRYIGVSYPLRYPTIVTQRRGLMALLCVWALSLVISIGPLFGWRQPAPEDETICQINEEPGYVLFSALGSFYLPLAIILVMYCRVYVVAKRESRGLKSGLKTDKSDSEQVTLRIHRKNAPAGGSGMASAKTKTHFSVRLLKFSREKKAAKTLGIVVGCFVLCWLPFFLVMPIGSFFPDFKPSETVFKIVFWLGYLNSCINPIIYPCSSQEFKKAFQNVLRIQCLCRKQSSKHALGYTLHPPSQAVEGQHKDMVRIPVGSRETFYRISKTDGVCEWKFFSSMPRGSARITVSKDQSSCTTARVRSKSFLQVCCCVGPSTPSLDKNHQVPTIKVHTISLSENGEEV
The following applies: Table 2, ADRA1A; accurate to ±20%.

Where two headings read alike, the source gives them in different places. Marks after values point to notes of the source that are not given here.

DRD5, sequence (P21918 whole entry, species assumed): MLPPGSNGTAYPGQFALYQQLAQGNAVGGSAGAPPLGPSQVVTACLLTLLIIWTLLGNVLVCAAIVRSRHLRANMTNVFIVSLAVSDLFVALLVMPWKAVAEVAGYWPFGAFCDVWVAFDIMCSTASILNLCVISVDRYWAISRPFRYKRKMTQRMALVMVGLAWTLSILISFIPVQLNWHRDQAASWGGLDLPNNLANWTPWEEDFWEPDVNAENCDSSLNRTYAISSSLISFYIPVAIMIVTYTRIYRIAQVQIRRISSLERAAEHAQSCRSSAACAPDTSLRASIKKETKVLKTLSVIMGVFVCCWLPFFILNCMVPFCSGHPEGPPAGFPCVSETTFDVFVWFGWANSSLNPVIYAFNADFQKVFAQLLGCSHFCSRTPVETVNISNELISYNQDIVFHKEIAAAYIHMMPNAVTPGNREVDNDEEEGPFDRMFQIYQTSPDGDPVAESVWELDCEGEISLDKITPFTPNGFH

The Papp is a coefficient for how fast a substance crosses the barrier. High values mean ready permeation, low ones poor permeation. What is called bioavailability is the share of a dose that reaches the circulation, judged against a reference dose that is usually intravenous. Read a high bioavailability as good availability. What is called half-life is the time needed for the level to fall by half in the phase considered. In general, Cmax refers to the highest concentration seen after dosing. For `CCCCCCCCCCCCCCCC[n+]1ccccc1` [Cetylpyridinium chloride], the Papp in [1] (dog, MDCK) was less than 0.5 ×10⁻⁶ cm/s. The compound further came in with a bioavailability in data set [2] (rat, in vivo, 1 mg/kg) of 5.4%. Besides, in data set [2] (rat, in vivo, iv, 1 mg/kg), the half-life is 9.7 h. The same compound returned a Cmax in [2] (rat, in vivo, po, 1 mg/kg) of 260 nM. Besides, the “i.v. AUC 0–24 (d.n.)” value in [2] (rats, i.v. 1 mg/kg, dose normalized) was 15,972 nM-hour. Moreover, the “Oral AUC 0–last (d.n.)” value in [2] (rats, oral 1 mg/kg, dose normalized) was 4,052 nM-hour.

For the compound `N[C@@H](CS)C(=O)O` [Cysteine], the “Ki/IC50 Or EC50” value in data set [3] amounted to 4.7 µM.

Take `O=S(=O)([O-])c1ccc(N=Nc2c(O)ccc3ccccc23)cc1.[Na+]` [D&C Orange No. 4]: the Ki/IC50 in data set [4] is 1.9 µM.

What is called IC50 is the concentration that inhibits the measured activity by half. Lower therefore signals greater potency in that assay. Take `Cc1ccc(N=Nc2c([O-])c(C(=O)O)cc3ccccc23)c(S(=O)(=O)[O-])c1.[Na+].[Na+]` [D&C Red No. 6]: in data set [5] (Table 4, target SLCO1B1), the IC50 came to 3.1 µM. The “%F” value in data set [6] worked out at 2.5%. For the same compound, in [1] (apparent permeability, Madin-Darby canine kidney permeability assay), the “MDCK-LE Papp” value is less than 1.2 ×10⁻⁶ cm/s.

Consider `CCOC(=O)c1ccccc1C(=O)OCC` [Diethyl phthalate], for which the Ki/IC50 in [7] (Table 1, PDE4D tested in place of SEA-predicted PDE4B and PDE1) was 8.5 µM. In data set [8] (iv), the “i.v. AUC 0–24 (d.n.)” value was 553 ^† nM-hour and the “t1/2 from i.v. dose” value is listed as 1.0 ^† hours. Moreover, in data set [8] (po), the Cmax is 253 nM and the “Oral AUC 0–last (d.n.)” value is on record as 350 ^† nM-hour. Moreover, the TNF-α modulation result in [9] (BioMAP, 1.1 to 30 μM) is given as “modulated tumor necrosis factor–α (TNF-α) in a dose-dependent manner”.

As to `CCCCC(CC)COC(=O)CC(C(=O)OCC(CC)CCCC)S(=O)(=O)O` (centres unmarked) [Docusate sodium], the Ki/IC50 in data set [4] was 2.3 µM.

As usually defined, the Kd is the equilibrium constant for the complex coming apart. For `C[CH2][Hg]` [Ethyl mercury], the “Ki/IC50 Or EC50” value in [10] (Table 2, DRD5, accurate to ±20%) was determined as 0.15 µM; in data set [11] (Table 2, DRD3, accurate to ±20%) it was 0.21 µM. The Kd in [10] (read-out: dopamine D5 receptor Kd) was approximately 0.15 µM; in data set [11], approximately 0.21 µM; in data set [11] (listed as major metabolite) it was 0.21 µM. In addition, the “median blood concentration of ethyl mercury” value in data set [12] is 0.14 ng/mL.

Regarding `CCOC(=O)c1ccc(O)cc1` [Ethylparaben], the “Ki/IC50 Or EC50” value in [13] worked out at 22 µM.

Take `COc1cc(S(=O)(=O)[O-])c(C)cc1N=Nc1c(O)ccc2cc(S(=O)(=O)[O-])ccc12.[Na+].[Na+]` [FD&C Red No. 40]: the Ki/IC50 in [4] was 4.7 µM.

With `O=S(=O)([O-])c1ccc(N=Nc2c(O)ccc3cc(S(=O)(=O)[O-])ccc23)cc1.[Na+].[Na+]` [FD&C Yellow No. 6], the Ki/IC50 in data set [4] is 74 µM.

Take `CC1(C)[C@@H](O[C@H]2O[C@H](C(=O)O)[C@@H](O)[C@H](O)[C@H]2O[C@@H]2O[C@H](C(=O)O)[C@@H](O)[C@H](O)[C@H]2O)CC[C@]2(C)[C@H]3C(=O)C=C4[C@@H]5C[C@@](C)(C(=O)O)CC[C@]5(C)CC[C@@]4(C)[C@]3(C)CC[C@@H]12` [Glycyrrhizin]: the Ki/IC50 in data set [5] (Table 1, predicted target SLCO1B1) is 13 µM.

On to `CCCCCCCCCCCCCCCC(=O)O` [Palmitic acid], for which the “Ki/IC50 Or EC50” value turned out to be 4.4 µM in data set [13]; 6.6 µM in data set [7] (Table 2, PDE4D, accurate to ±20%); 4.1 µM in [14].

For `C[CH2][Hg][S]c1ccccc1C(=O)[O-].[Na+]` [Thimerosal], the “effect on serotonergic and dopaminergic systems” value in data set [15] was “impaired the serotonergic and dopaminergic systems in the rat brain”. It took 0.32 µM to reach half-maximal inhibition in [11] (Table 4, target DRD3) (IC50). For the same compound, the Kd in data set [11] was 0.32 µM. For the same compound, the “striatal D2 receptor density (immunohistochemistry)” value in [16] (rats ref 48) is given as “decline in striatal D2 receptor density”. The behavioral effects result in data set [16] (rats treated postnatally ref 48) is “impaired locomotor function, increased anxiety/neophobia in the open field, and alterations in social behavior”.

Consider `Cc1ccc(C(C)C)c(O)c1` [Thymol], for which the “Ki/IC50 Or EC50” value in data set [13] stood at 25 µM; in data set [17], 28 µM; in data set [18], 14 µM; in data set [19], 26 µM.

As to `CC(O)CO` (centres unmarked) [propylene glycol], the “activity in the BioMAP cell-based systems” value in data set [9] (1.1, 3.3, 10, 30 μM) was “no measurable activity”.
